In ChEMBL document CHEMBL1136391, “Synthesis and activity of a C-8 keto pleuromutilin derivative” (2003) one finds MIC data, which are given here for two molecules.

What all share (assay type): functional
Assay [1] concerns Moraxella catarrhalis. Nature of the assay: Minimum inhibitory concentration against Moraxella catarrhalis / Pen+.
The subject of assay [2] is Haemophilus influenzae. Kind of assay: Minimum inhibitory concentration against Haemophilus influenzae / Pen+.
Assay [3] concerns Staphylococcus aureus. Nature of the assay: Minimum inhibitory concentration against Staphylococcus aureus / Homo MR.
Assay [4] deals with Streptococcus pneumoniae. Nature of the assay: Minimum inhibitory concentration against Streptococcus pneumoniae / Penicillin Resistant.

≈ marks a conversion by molar mass, not a printed value.

`C=C[C@]1(C)C[C@@H](OC(=O)Nc2ccc(OC)cc2)[C@]2(C)C(C)CC[C@]3(CCC(=O)[C@H]32)[C@@H](C)[C@@H]1O` (stereo partly drawn): the MIC amounted to 0.125 µg/mL (≈ 0.266 µM) in assay [1], 4 µg/mL (≈ 8.52 µM) in assay [2], 0.003 µg/mL (≈ 0.00639 µM) in assay [3] and 0.003 µg/mL (≈ 0.00639 µM) in assay [4].

On to `C=C[C@]1(C)C[C@@H](OC(=O)Nc2ccc(OC)cc2)[C@]2(C)C(C)CC(=O)[C@]3(CCC(=O)[C@H]32)[C@@H](C)[C@@H]1O` (stereo partly drawn), for which the MIC in assay [1] worked out at 64 µg/mL (≈ 132 µM); in assay [2], 64 µg/mL (≈ 132 µM); in assay [3], 32 µg/mL (≈ 66.2 µM); in assay [4] it was 32 µg/mL (≈ 66.2 µM).
